One series addresses T1, HERG current (Homo sapiens, UniProt Q12809).
T1 construct: expressed in transfected cells; host or cells: HEK293
The series is described as follows: hERG assay, whole-cell voltage clamp in HEK293 cells. The class given is cell-based. As to conditions: HEK293 with stable transfection of HERG, 5 minutes of drug application. The source says:
Biological Example 6: hERG Assay
HERG (human ether-à-go-go-related gene) encodes a potassium channel with biophysical properties similar to the rapidly activating delayed-rectifier K^+ current (IKr) in cardiac myocytes. This IKr current contributes to the K^+ current responsible for the repolarization phase of the cardiac action potential. Blockage of this current may prolong action potential duration and cause long QT-syndrome. The development of QT prolongation can lead to the occurrence of ventricular arrhythmias such as Torsades de Pointes, which can result in sudden death. […]
Electrophysiological measurements: The membrane current of the cells was measured at distinct membrane potentials with the patch clamp technique by means of an EPC-9 patch clamp amplifier. […] The HERG current (K+-selective outward current) was determined as the maximal tail current at −40 mV after a 2 second depolarization to +60 mV. […] Thereafter test pulses were given for 5 minutes to quantify the HERG current in control conditions. […] The effect of the test compound was measured after 5 minutes of drug application. […]
Measurements: The HERG current was determined as the maximal tail current at −40 mV after a 2 second depolarization to +60 mV, starting from a holding potential of −80 mV. […]

In the next series the target is T2, CYP3A4 (Homo sapiens, UniProt P08684).
T2 construct: Frozen human liver microsomes (HLM) were thawed at 37° C; from tissue; host or cells: human liver microsomes
Briefly: Assessment of TDI potential using the IC50 shift method. It counts as in vitro ADME. The settings on record: CYP3A4 (testosterone). As to the method: Assessment of TDI Potential Using the IC50 Shift Method
To establish the potential for TDI of a particular P450 isozyme, the test compound is preincubated over a concentration range (typically 0.04 to 10 μM) with HLMs in the presence of cofactor NADPH for 30 minutes. After pre-incubation, a probe substrate known to be specifically metabolized to a defined metabolite by the isoform under investigation is then added at fixed concentration. Following a pre-defined incubation period (e.g. 10 minutes for the CYP3A4 testosterone assay), the reaction is terminated by addition of a suitable organic solvent (typically, acetonitrile) containing an internal standard. The samples are centrifuged prior to analysis by LC-MS/MS analysis and IC50 TDI value is calculated using curve fitting. This is compared to the IC50 for reversible inhibition, obtained when the pre-incubation step is performed in the absence of […] (IC50 Rev). A leftwards shift in the IC50 (i.e. increased inhibition) upon pre-incubation indicates the potential for TDI of that isozyme. The IC50 shift value is calculated as the ratio of IC50 Rev/IC50 TDI.
The assay was performed on a fully automated Tecan robotic system. Sample analysis was performed via LC-MS/MSMS using stable-labelled internal standard of the probe substrate metabolite.

The results in this text go back to patent publication US12545677B2, “Compounds useful as factor XIa inhibitors” (JANSSEN PHARMACEUTICA NV, priority 2020, dated 2026).

Like-named read-outs stand apart in the source and are kept apart here.

T2 sequence (P08684 whole entry): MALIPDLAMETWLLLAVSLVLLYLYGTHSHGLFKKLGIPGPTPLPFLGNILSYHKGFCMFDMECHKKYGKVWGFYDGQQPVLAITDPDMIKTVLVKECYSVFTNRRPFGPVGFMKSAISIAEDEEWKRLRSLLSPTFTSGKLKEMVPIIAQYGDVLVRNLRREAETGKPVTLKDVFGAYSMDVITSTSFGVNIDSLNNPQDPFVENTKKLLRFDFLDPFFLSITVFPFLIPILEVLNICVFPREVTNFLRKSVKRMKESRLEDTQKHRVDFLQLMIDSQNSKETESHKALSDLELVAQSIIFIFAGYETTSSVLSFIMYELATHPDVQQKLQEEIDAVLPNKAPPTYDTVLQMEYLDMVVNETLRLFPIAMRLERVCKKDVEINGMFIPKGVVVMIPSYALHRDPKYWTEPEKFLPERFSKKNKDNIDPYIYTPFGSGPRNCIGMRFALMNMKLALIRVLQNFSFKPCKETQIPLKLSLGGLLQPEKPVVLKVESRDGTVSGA
T1 sequence (Q12809 whole entry): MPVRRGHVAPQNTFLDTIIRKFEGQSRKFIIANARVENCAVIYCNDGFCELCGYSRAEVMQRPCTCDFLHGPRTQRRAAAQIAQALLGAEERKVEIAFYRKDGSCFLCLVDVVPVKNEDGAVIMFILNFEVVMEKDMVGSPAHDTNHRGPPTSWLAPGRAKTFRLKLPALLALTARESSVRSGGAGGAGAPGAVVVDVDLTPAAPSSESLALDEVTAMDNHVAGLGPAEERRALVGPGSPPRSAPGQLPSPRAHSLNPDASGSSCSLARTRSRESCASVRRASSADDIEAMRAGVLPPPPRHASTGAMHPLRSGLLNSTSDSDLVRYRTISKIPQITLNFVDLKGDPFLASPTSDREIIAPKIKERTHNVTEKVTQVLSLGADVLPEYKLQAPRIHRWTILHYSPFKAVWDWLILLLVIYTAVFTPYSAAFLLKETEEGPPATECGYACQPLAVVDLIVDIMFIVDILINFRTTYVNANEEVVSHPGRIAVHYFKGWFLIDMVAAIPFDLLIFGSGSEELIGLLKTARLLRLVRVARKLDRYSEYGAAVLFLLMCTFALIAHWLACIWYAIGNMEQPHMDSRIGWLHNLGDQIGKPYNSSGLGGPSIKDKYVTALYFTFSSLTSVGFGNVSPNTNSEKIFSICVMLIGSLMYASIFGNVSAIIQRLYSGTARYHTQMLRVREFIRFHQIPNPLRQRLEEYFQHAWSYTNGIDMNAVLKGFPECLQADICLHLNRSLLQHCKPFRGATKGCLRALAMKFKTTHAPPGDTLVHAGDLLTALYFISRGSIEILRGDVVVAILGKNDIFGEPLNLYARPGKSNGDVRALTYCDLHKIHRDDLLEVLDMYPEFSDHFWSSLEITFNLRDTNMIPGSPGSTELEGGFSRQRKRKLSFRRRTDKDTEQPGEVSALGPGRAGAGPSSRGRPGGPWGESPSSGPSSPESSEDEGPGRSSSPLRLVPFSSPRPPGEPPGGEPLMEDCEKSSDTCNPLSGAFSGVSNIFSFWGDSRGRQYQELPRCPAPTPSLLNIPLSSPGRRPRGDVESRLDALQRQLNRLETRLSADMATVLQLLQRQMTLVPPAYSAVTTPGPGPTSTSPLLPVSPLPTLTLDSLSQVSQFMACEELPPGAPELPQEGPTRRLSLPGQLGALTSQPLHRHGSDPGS

What is called IC50 is the point on the concentration scale where inhibition reaches its midpoint. On to `O=C1C=C(c2c(-n3cnnn3)ccc(Cl)c2F)C[C@H]2CC[C@@H](c3ncc(-c4ccnc(CO)c4F)[nH]3)N12` [Compound of formula (I-A), (3S,8aR)-7-(3-Chloro-2-fluoro-6-(1H-tetrazol-1-yl)phenyl)-3-(5-(3-fluoro-2-(hydroxymethyl)pyridin-4-yl)-1H-imidazol-2-yl)-2,3,8,8a-tetrahydroindolizin-5(1H)-one], for which the half-inhibitory concentration (IC50) on HERG current was above 30 µM; at CYP3A4 (HLM, 30 minutes pre-incubation with NADPH, read-out: IC50 with pre-incubation) it was 17.5 ± 2.5 µM; at CYP3A4 (HLM, standard solvent conditions, read-out: IC50 without pre-incubation), 12.2 ± 1.4 µM. The “% maximum concentration, without pre-incubation” value at CYP3A4 (HLM) was found to be 68.2%. For the same molecule, on CYP3A4 (HLM, 30 minutes pre-incubation), the “% maximum concentration, with pre-incubation” value stood at 62.8%. On CYP3A4 (ratio of IC50 Rev/IC50 TDI), the IC50 shift was 0.70.
